Data on one compound can be found in ChEMBL document CHEMBL4406898, “Dual mode of binding of anti cancer drug epirubicin to G-quadruplex [d-(TTAGGGT)]4 containing human telomeric DNA sequence induces thermal stabilization” (Bioorg Med Chem, 2019).

Assay [1] deals with Tetrahymena thermophila. The assay is described as follows: Binding affinity to Tetrahymena thermophila telomeric 7 G-quadruplex DNA assessed as binding constant Kb1 in presence of 10 mM KCl by fluorescence spectroscopy.
Assay [2] has as its system Tetrahymena thermophila. The assay is described as follows: Binding affinity to Tetrahymena thermophila telomeric 7 G-quadruplex DNA assessed as binding constant Kb2 in presence of 10 mM KCl by fluorescence spectroscopy.

As for `COc1cccc2c1C(=O)c1c(O)c3c(c(O)c1C2=O)C[C@@](O)(C(C)=O)C[C@@H]3O[C@H]1C[C@H](N)[C@H](O)[C@H](C)O1`, the Kb in the assay with Tetrahymena thermophila [1] amounted to 6.3 ×10⁵ /M; in the assay with Tetrahymena thermophila [2] it was 1.3 ×10⁵ /M.
